Earlier results, collected in PubChem BioAssay AID1259409 (Chemical Carcinogenesis Research Information System (CCRIS), 2018).

Test system: rodent chemically induced tumor inhibition, incidence and multiplicity
Assay: CCRIS tumor inhibitor studies

COc1ccc2c(c1)c(CC(=O)O)c(C)n2C(=O)c1ccc(Cl)cc1
tumour outcome (control, treated, inhibition, significance) (Carcinogen: METHYLAZOXYMETHANOL, 590-96-5, Dose [Inhibitor]: 7.5 MG/KG BW DAILY FOR 3 WK STARTING 27 WK AFTER THE START OF CARCINOGEN TREATMENT (STUDY DURATION: 30 WK), Route [Inhibitor]: INTRARECTAL, Species: RAT, Strain/Sex: DONRYU/MALE, Target Tissue: Type of Lesion: SMALL INTESTINE: ADENOCARCINOMA, Dose [Carcinogen]: 20 MG/KG BW 1/WK FOR 6 WK, Promoter: NONE USED): 10/23 (43%), 4/30 (13%), 70%, p<0.05 | tumour outcome (control, treated, inhibition, significance) (Carcinogen: N,N-DIETHYLNITROSAMINE, 55-18-5, Dose [Inhibitor]: 0.016 MG/ML IN DRINKING WATER 3/WK FOR 4 MO STARTING 4 MO AFTER THE START OF CARCINOGEN TREATMENT AND CONTINUING FOR DUR, Route [Inhibitor]: ORAL, Species: MOUSE, Strain/Sex: C57BL/MALE, Target Tissue: Type of Lesion: ESOPHAGUS: TUMOR, Dose [Carcinogen]: 0.04 ML/1000 ML DRINKING WATER DAILY FOR 30 D THEN EVERY SECOND WK TO COMPLETE 5 MO PERIOD, Promoter: NONE USED): 16/16 (100%), 19/19 (100%), 0%, not significant | tumour outcome (control, treated, inhibition, significance) (Carcinogen: N,N-DIETHYLNITROSAMINE, 55-18-5, Dose [Inhibitor]: 0.016 MG/ML IN DRINKING WATER GIVEN TOGETHER WITH CARCINOGEN STARTING AT THE BEGINNING OF THE STUDY DAILY FOR 14 D AND 3, Route [Inhibitor]: ORAL, Species: MOUSE, Strain/Sex: C57BL/MALE, Target Tissue: Type of Lesion: ESOPHAGUS: TUMOR, Dose [Carcinogen]: 0.04 ML/1000 ML DRINKING WATER DAILY FOR 14 D THEN 3 D/WK FOR DURATION OF STUDY, Promoter: NONE USED): 24/24 (100%), 45/45 (100%), 0%, not significant | tumour outcome (control, treated, inhibition, significance) (Carcinogen: N,N-DIETHYLNITROSAMINE, 55-18-5, Dose [Inhibitor]: 0.016 MG/ML IN DRINKING WATER GIVEN TOGETHER WITH CARCINOGEN STARTING AT THE BEGINNING OF THE STUDY DAILY FOR 30 D THEN, Route [Inhibitor]: ORAL, Species: MOUSE, Strain/Sex: C57BL/MALE, Target Tissue: Type of Lesion: ESOPHAGUS: TUMOR, Dose [Carcinogen]: 0.04 ML/1000 ML DRINKING WATER GIVEN TOGETHER WITH AGENT, Promoter: NONE USED): 8/8 (100%), 16/16 (100%), 0%, not significant | tumour outcome (control, treated, inhibition, significance) (Carcinogen: N-BUTYL-N-(4-HYDROXYBUTYL)NITROSAMINE, 3817-11-6, Dose [Inhibitor]: 0, 7.5 MG/KG DIET BEGINNING 1 WK PRIOR TO CARCINOGEN TREATMENT AND CONTINUING FOR DURATION OF STUDY (STUDY DURATION: 187, Route [Inhibitor]: ORAL, Species: MOUSE, Strain/Sex: BDF/MALE, Target Tissue: Type of Lesion: URINARY BLADDER: TUMOR, Dose [Carcinogen]: 7.5 MG IN 0.1 ML OF ETHANOL:WATER (20:80) 1/WK FOR 8 WK, Promoter: NONE USED): 24%, 5%, 79%, p<0.05 | tumour outcome (control, treated, inhibition, significance) (Carcinogen: N-BUTYL-N-(4-HYDROXYBUTYL)NITROSAMINE, 3817-11-6, Dose [Inhibitor]: 0, 15 MG/KG DIET BEGINNING 1 WK PRIOR TO CARCINOGEN TREATMENT AND CONTINUING FOR DURATION OF STUDY (STUDY DURATION: 187, Route [Inhibitor]: ORAL, Species: MOUSE, Strain/Sex: BDF/MALE, Target Tissue: Type of Lesion: URINARY BLADDER: TUMOR, Dose [Carcinogen]: 7.5 MG IN 0.1 ML OF ETHANOL:WATER (20:80) 1/WK FOR 8 WK, Promoter: NONE USED): 24%, 0%, 100%, p<0.01 | tumour outcome (control, treated, inhibition, significance) (Carcinogen: N-BUTYL-N-(4-HYDROXYBUTYL)NITROSAMINE, 3817-11-6, Dose [Inhibitor]: 0, 20 PPM IN DRINKING WATER FOR 20 WK BEGINNING POST PROMOTER TREATMENT (STUDY DURATION: 44 WK), Route [Inhibitor]: ORAL, Species: RAT, Strain/Sex: F344/MALE, Target Tissue: Type of Lesion: URINARY BLADDER: PAPILLOMA, Dose [Carcinogen]: 0.05% IN DRINKING WATER FOR 4 WK, Promoter: BUTYLATED HYDROXYANISOLE, 25013-16-5): 6/15 (40%), 9/15 (60%), -50%, not significant | tumour outcome (control, treated, inhibition, significance) (Carcinogen: N-BUTYL-N-(4-HYDROXYBUTYL)NITROSAMINE, 3817-11-6, Dose [Inhibitor]: 0, 20 PPM IN DRINKING WATER FOR 20 WK BEGINNING POST PROMOTER TREATMENT (STUDY DURATION: 44 WK), Route [Inhibitor]: ORAL, Species: RAT, Strain/Sex: F344/MALE, Target Tissue: Type of Lesion: URINARY BLADDER: PAPILLOMA, Dose [Carcinogen]: 0.05% IN DRINKING WATER FOR 4 WK, Promoter: SODIUM L-ASCORBATE, 134-03-2): 10/15 (67%), 10/15 (67%), 0%, not significant | tumour outcome (control, treated, inhibition, significance) (Carcinogen: N-BUTYL-N-(4-HYDROXYBUTYL)NITROSAMINE, 3817-11-6, Dose [Inhibitor]: 0, 20 PPM IN DRINKING WATER FOR 20 WK BEGINNING POST PROMOTER TREATMENT (STUDY DURATION: 44 WK), Route [Inhibitor]: ORAL, Species: RAT, Strain/Sex: F344/MALE, Target Tissue: Type of Lesion: URINARY BLADDER: TRANSITIONAL CELL CARCINOMA, Dose [Carcinogen]: 0.05% IN DRINKING WATER FOR 4 WK, Promoter: BUTYLATED HYDROXYANISOLE, 25013-16-5): 3/15 (20%), 3/15 (20%), 0%, not significant | tumour outcome (control, treated, inhibition, significance) (Carcinogen: N-BUTYL-N-(4-HYDROXYBUTYL)NITROSAMINE, 3817-11-6, Dose [Inhibitor]: 0, 20 PPM IN DRINKING WATER FOR 20 WK BEGINNING POST PROMOTER TREATMENT (STUDY DURATION: 44 WK), Route [Inhibitor]: ORAL, Species: RAT, Strain/Sex: F344/MALE, Target Tissue: Type of Lesion: URINARY BLADDER: TRANSITIONAL CELL CARCINOMA, Dose [Carcinogen]: 0.05% IN DRINKING WATER FOR 4 WK, Promoter: SODIUM L-ASCORBATE, 134-03-2): 6/15 (40%), 2/15 (13%), 67%, not significant
